Patent US7851637B2, “Compounds and methods for inhibiting the interaction of BCL proteins with binding partners” (Infinity Pharmaceuticals, Inc., priority 2004, dated 2010)
Values belong to the molecule of their own block, whether it stands above or below them.

What was measured:
Bcl-xL = Bcl-xL (Homo sapiens, UniProt Q07817); assay: Bcl-xL binding affinity analysis (fluorescence polarization binding assay); design: scale not given here
From the text: (§1) Bcl-2 and Bcl-xL binding can be determined using a variety of known methods. One such assay is a sensitive and quantitative in vitro binding assay using fluorescence polarization (FP) described by Wang, J. -L.; Zhang, Z -J.; Choksi, S.; Sjam. S.; Lu, Z.; Croce, C. M.; Alnenri, E. S.; Komgold, R.; Huang, Z. Cell permeable Bcl-2 binding peptides: a chemical approach to apoptosis induction in tumor cells. Cancer Res. 2000, 60, 1498-1502).
(§2) Bcl-2 and Bcl-xL binding affinity analysis data is presented below for various compounds of the invention.

Bcl-2 = Bcl-2 (Homo sapiens, UniProt P10415); assay: Bcl-2 binding affinity analysis (fluorescence polarization binding assay)
Bcl-2, sequence (P10415 whole entry): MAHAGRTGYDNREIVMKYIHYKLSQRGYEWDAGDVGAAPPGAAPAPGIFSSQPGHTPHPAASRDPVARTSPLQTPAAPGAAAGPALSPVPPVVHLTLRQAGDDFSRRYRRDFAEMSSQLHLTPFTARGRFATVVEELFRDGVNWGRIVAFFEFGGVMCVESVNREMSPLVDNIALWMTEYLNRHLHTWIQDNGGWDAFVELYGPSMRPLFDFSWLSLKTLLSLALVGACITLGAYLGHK
From the text: as §1, §2

Bcl-xL, sequence (Q07817 whole entry): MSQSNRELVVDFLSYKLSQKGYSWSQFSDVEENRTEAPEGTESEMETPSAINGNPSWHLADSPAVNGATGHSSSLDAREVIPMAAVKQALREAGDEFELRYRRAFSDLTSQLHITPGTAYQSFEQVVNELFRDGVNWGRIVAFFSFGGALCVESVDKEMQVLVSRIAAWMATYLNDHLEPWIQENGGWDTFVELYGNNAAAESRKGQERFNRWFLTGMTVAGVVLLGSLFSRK

SMILES: CC(O)[C@H]1[C@@H](CO)ON(Cc2cccc(C#CC(O)c3ccc(F)cc3)c2)[C@H]1C(=O)NCCCN(C)c1ccccc1 (some centres unmarked) [Compound 29]
Bcl-XL binding affinity Ki (Bcl-xL): ♯
Ki (Bcl-2): 0.8 to 6 µM

SMILES: CC(O)[C@H]1[C@@H](CO)ON(Cc2cccc(C#CC(C)(C)c3ccccc3)c2)[C@H]1C(=O)NCCCN(C)c1ccccc1 (some centres unmarked) [Compound 31]
Bcl-XL binding affinity Ki (Bcl-xL): ♯
Ki (Bcl-2): 0.8 to 6 µM

SMILES: CC(O)C1[C@H](CO)ON(Cc2cccc(C#Cc3ccccn3)c2)[C@@H]1C(=O)N[C@H]1C[C@H]2CC([C@@H]1C)C2(C)C (some centres unmarked) [Compound 32]
Bcl-XL binding affinity Ki (Bcl-xL): ♯
Ki (Bcl-2): 0.8 to 6 µM

SMILES: C[C@@H](O)[C@H]1[C@@H](CO)ON(Cc2cccc(C#CC(O)c3ccccc3Cl)c2)[C@H]1C(=O)NCCCN(C)c1ccccc1 (some centres unmarked) [Compound 33]
Bcl-XL binding affinity Ki (Bcl-xL): ♯♯
Ki (Bcl-2): 0.8 to 6 µM

SMILES: C[C@H](O)[C@@H]1[C@H](CO)ON(Cc2cccc(C#C[C@]3(O)CC[C@H]4[C@@H]5CCc6cc(O)ccc6[C@H]5CC[C@@]43C)c2)[C@@H]1C(=O)NCCCN(C)c1ccccc1 [Compound 34]
Bcl-XL binding affinity Ki (Bcl-xL): ♯
Ki (Bcl-2): > 50 µM

SMILES: C[C@@H]1[C@@H](NC(=O)[C@@H]2C(CO)[C@H]([C@H](C)O)ON2Cc2cccc(C#CC(C)(O)c3ccccc3)c2)C[C@H]2C[C@@H]1C2(C)C (some centres unmarked) [Compound 35]
Bcl-XL binding affinity Ki (Bcl-xL): ♯
Ki (Bcl-2): > 50 µM

SMILES: C[C@@H](O)[C@H]1[C@@H](CO)ON(Cc2cccc(C#CC(O)c3ccoc3)c2)[C@H]1C(=O)NCCCN(C)c1ccccc1 (some centres unmarked) [Compound 36]
Bcl-XL binding affinity Ki (Bcl-xL): ♯♯
Ki (Bcl-2): 0.8 to 6 µM

SMILES: C[C@@H](O)[C@H]1[C@@H](CO)ON(Cc2cccc(C#CC(O)Cc3ccccc3)c2)[C@H]1C(=O)NCCCN(C)c1ccccc1 (some centres unmarked) [Compound 39]
Bcl-XL binding affinity Ki (Bcl-xL): ♯♯
Ki (Bcl-2): 0.8 to 6 µM

SMILES: C[C@@H](O)[C@H]1[C@@H](CO)ON(Cc2cccc(C#CC3(O)CCCC3)c2)[C@H]1C(=O)NCC1CCCCC1 [Compound 40]
Bcl-XL binding affinity Ki (Bcl-xL): ♯
Ki (Bcl-2): > 50 µM

SMILES: CCCCC[C@H](O)C#Cc1cccc(CN2O[C@@H](CO)[C@@H]([C@H](C)O)[C@H]2C(=O)NCCC(C)C)c1 [Compound 41]
Bcl-XL binding affinity Ki (Bcl-xL): ♯
Ki (Bcl-2): > 50 µM

SMILES: C[C@@H](O)[C@H]1[C@@H](CO)ON(Cc2cccc(C#CC(O)c3ccc(-n4ccnc4)cc3)c2)[C@H]1C(=O)NCCCN(C)c1ccccc1 (some centres unmarked) [Compound 42]
Bcl-XL binding affinity Ki (Bcl-xL): ♯♯
Ki (Bcl-2): 0.8 to 6 µM

SMILES: C[C@@H]1[C@@H](NC(=O)[C@@H]2C([C@H](C)O)[C@H](CO)ON2Cc2cccc(C#CC(C)(O)c3ccccc3)c2)C[C@H]2C[C@@H]1C2(C)C (some centres unmarked) [Compound 43]
Bcl-XL binding affinity Ki (Bcl-xL): ♯♯
Ki (Bcl-2): 0.8 to 6 µM

SMILES: C[C@@H](O)[C@H]1[C@@H](CO)ON(Cc2cccc(C#CCCCCl)c2)[C@H]1C(=O)NCCCN(C)c1ccccc1 [Compound 44]
Bcl-XL binding affinity Ki (Bcl-xL): ♯
Ki (Bcl-2): 6 to 50 µM

SMILES: CC(C)=CCC/C(C)=C/CNC(=O)[C@H]1[C@@H]([C@@H](C)O)[C@@H](CO)ON1Cc1cccc(C#CC(C)(O)c2ccccc2)c1 (some centres unmarked) [Compound 45]
Bcl-XL binding affinity Ki (Bcl-xL): ♯
Ki (Bcl-2): 6 to 50 µM

SMILES: C[C@@H](O)[C@H]1[C@@H](CO)ON(Cc2cccc(C#CC(C)(O)c3ccccc3)c2)[C@H]1C(=O)NCCCN(C)c1ccccc1 (some centres unmarked) [Compound 49]
Bcl-XL binding affinity Ki (Bcl-xL): ♯
Ki (Bcl-2): 0.8 to 6 µM

SMILES: C[C@@H](O)[C@H]1[C@@H](CO)ON(Cc2cccc(C#CCN(C)Cc3ccccc3)c2)[C@H]1C(=O)NCCCN(C)c1ccccc1 [Compound 51]
Bcl-XL binding affinity Ki (Bcl-xL): ♯
Ki (Bcl-2): 0.8 to 6 µM

SMILES: C[C@H](O)[C@@H]1[C@H](CO)ON(Cc2cccc(C#C[C@@H](O)c3ccccc3)c2)[C@@H]1C(=O)N[C@H]1C[C@H]2CC([C@@H]1C)C2(C)C [Compound 52]
Bcl-XL binding affinity Ki (Bcl-xL): ♯
Ki (Bcl-2): 0.8 to 6 µM

SMILES: C[C@H](O)[C@@H]1[C@H](CO)ON(Cc2cccc(C#CCNC(=O)c3ccccc3)c2)[C@@H]1C(=O)N[C@H]1C[C@H]2CC([C@@H]1C)C2(C)C [Compound 57]
Bcl-XL binding affinity Ki (Bcl-xL): ♯
Ki (Bcl-2): 0.8 to 6 µM

SMILES: C[C@@H](O)[C@H]1[C@@H](CO)ON(Cc2cccc(C#CCNC(=O)c3ccccc3)c2)[C@H]1C(=O)NCc1ccc(-c2ccccc2)cc1 [Compound 60]
Bcl-XL binding affinity Ki (Bcl-xL): ♯♯
Ki (Bcl-2): > 50 µM

SMILES: C[C@@H](O)[C@H]1[C@@H](CO)ON(Cc2cccc(C#CCNC(=O)c3ccccc3)c2)[C@H]1C(=O)NCCNCc1ccccc1 [Compound 61]
Bcl-XL binding affinity Ki (Bcl-xL): ♯
Ki (Bcl-2): 6 to 50 µM

SMILES: C[C@@H](O)[C@@H]1C(C(=O)NCCCN(C)c2ccc(Cl)cc2)N(Cc2cccc(C#CCNC(=O)c3ccccc3)c2)O[C@@H]1CO (some centres unmarked) [Compound 62]
Bcl-XL binding affinity Ki (Bcl-xL): ♯♯
Ki (Bcl-2): 6 to 50 µM

SMILES: C[C@@H](O)[C@H]1[C@@H](CO)ON(Cc2cccc(C#CCNC(=O)c3ccccc3)c2)[C@H]1C(=O)NCc1ccc(Oc2ccccc2)cc1 [Compound 63]
Bcl-XL binding affinity Ki (Bcl-xL): ♯
Ki (Bcl-2): 0.8 to 6 µM

SMILES: C[C@@H](O)[C@H]1[C@@H](CO)ON(Cc2cccc(C#CCNC(=O)c3ccccc3)c2)[C@H]1C(=O)NCCCCc1ccccc1 [Compound 64]
Bcl-XL binding affinity Ki (Bcl-xL): ♯
Ki (Bcl-2): 0.8 to 6 µM

SMILES: C[C@@H]1[C@@H](NC(=O)[C@@H]2[C@H]([C@H](C)O)[C@H](CO)ON2Cc2cccc(C#CCNCc3ccccn3)c2)C[C@H]2C[C@@H]1C2(C)C [Compound 66]
Ki (Bcl-2): 0.8 to 6 µM

SMILES: C[C@@H](O)[C@H]1[C@@H](CO)ON(Cc2cccc(C#CCNCc3ccc(-c4ccccc4)cc3)c2)[C@H]1C(=O)NCCCN(C)c1ccccc1 [Compound 71]
Ki (Bcl-2): 6 to 50 µM

SMILES: C[C@@H](O)[C@H]1[C@@H](CO)ON(Cc2cccc(C#CCNS(=O)(=O)c3ccc(Oc4ccccc4)cc3)c2)[C@H]1C(=O)NCCCN(C)c1ccccc1 [Compound 72]
Ki (Bcl-2): 6 to 50 µM

SMILES: C[C@@H]1[C@@H](NC(=O)C2[C@H]([C@H](C)O)[C@H](CO)ON2Cc2cccc(C#CCNS(=O)(=O)c3ccc(-c4ccccc4)cc3)c2)C[C@H]2C[C@@H]1C2(C)C (some centres unmarked) [Compound 73]
Ki (Bcl-2): 0.8 to 6 µM

SMILES: C[C@@H]1[C@@H](NC(=O)[C@@H]2[C@H]([C@H](C)O)[C@H](CO)ON2Cc2cccc(C#CCNS(=O)(=O)Cc3ccccc3)c2)C[C@H]2C[C@@H]1C2(C)C [Compound 74]
Ki (Bcl-2): 0.8 to 6 µM

SMILES: C[C@@H](O)[C@H]1[C@@H](CO)ON(Cc2cccc(C#CCNS(=O)(=O)c3cccc4cccnc34)c2)[C@H]1C(=O)NCCCN(C)c1ccccc1 [Compound 75]
Ki (Bcl-2): 0.8 to 6 µM

SMILES: C[C@@H]1[C@@H](NC(=O)[C@@H]2[C@H]([C@H](C)O)[C@H](CO)ON2Cc2cccc(C#CCNC(=O)NCc3ccccc3)c2)C[C@H]2C[C@@H]1C2(C)C [Compound 78]
Ki (Bcl-2): 0.8 to 6 µM

SMILES: C[C@@H](O)[C@H]1[C@@H](CO)ON(Cc2cccc(C#CCNC(=O)NC3CC3c3ccccc3)c2)[C@H]1C(=O)NCCCN(C)c1ccccc1 (some centres unmarked) [Compound 80]
Ki (Bcl-2): 0.8 to 6 µM

SMILES: CC(C)C[C@@H](CN(C)C)NC(=O)c1cccc(-c2cccc(CN3O[C@@H](CO)[C@@H]([C@H](C)O)[C@H]3C(=O)N[C@H]3C[C@H]4C[C@@H]([C@@H]3C)C4(C)C)c2)c1 [Compound 97]
Bcl-XL binding affinity Ki (Bcl-xL): ♯♯
Ki (Bcl-2): 0.8 to 6 µM

Next, values leading:

Bcl-XL binding affinity Ki (Bcl-xL): ♯
Ki (Bcl-2): 6 to 50 µM
SMILES: C[C@H](O)[C@@H]1[C@H](CO)ON(Cc2cccc(C#CC3(N)CCCCC3)c2)[C@@H]1C(=O)NCCCN(C)c1ccccc1 [Compound 28]

Bcl-XL binding affinity Ki (Bcl-xL): ♯♯
Ki (Bcl-2): 0.8 to 6 µM
SMILES: C[C@@H]1[C@@H](NC(=O)[C@@H]2C([C@H](C)O)[C@H](CO)ON2Cc2ccc(C#CC3(N)CCCCC3)cc2)C[C@H]2C[C@@H]1C2(C)C (some centres unmarked) [Compound 30]

Bcl-XL binding affinity Ki (Bcl-xL): ♯
Ki (Bcl-2): 6 to 50 µM
SMILES: C[C@@H](O)[C@H]1[C@@H](CO)ON(Cc2cccc(C#CC(C)(O)c3ccccc3)c2)[C@H]1C(=O)NCC1CCCCC1 (some centres unmarked) [Compound 37]

Bcl-XL binding affinity Ki (Bcl-xL): ♯♯
Ki (Bcl-2): > 50 µM
SMILES: C[C@H](O)[C@@H]1[C@H](CO)ON(Cc2ccc(C#CCN(C)Cc3ccccc3)cc2)[C@@H]1C(=O)NCCC1=CCCCC1 [Compound 38]

Bcl-XL binding affinity Ki (Bcl-xL): ♯
Ki (Bcl-2): > 50 µM
SMILES: CCCCC[C@H](O)C#Cc1ccc(CN2O[C@@H](CO)[C@@H]([C@H](C)O)[C@H]2C(=O)NCCCN(C)c2ccccc2)cc1 [Compound 46]

Bcl-XL binding affinity Ki (Bcl-xL): ♯♯
Ki (Bcl-2): > 50 µM
SMILES: COC(=O)[C@@H](NC(=O)[C@@H]1[C@H]([C@H](C)O)[C@H](CO)ON1Cc1cccc(C#CC2(N)CCCCC2)c1)C(C)C [Compound 47]

Bcl-XL binding affinity Ki (Bcl-xL): ♯
Ki (Bcl-2): 0.8 to 6 µM
SMILES: C[C@@H](O)[C@H]1[C@@H](CO)ON(Cc2cccc(C#C[C@@H](O)c3ccccc3)c2)[C@H]1C(=O)NCCCN(C)c1ccccc1 [Compound 48]

Bcl-XL binding affinity Ki (Bcl-xL): ♯
Ki (Bcl-2): 0.8 to 6 µM
SMILES: CNCC#Cc1cccc(CN2O[C@@H](CO)[C@@H]([C@H](C)O)[C@H]2C(=O)N[C@H]2C[C@H]3CC([C@@H]2C)C3(C)C)c1 [Compound 50]

Bcl-XL binding affinity Ki (Bcl-xL): ♯♯
Ki (Bcl-2): > 50 µM
SMILES: C[C@@H](O)[C@@H]1C(C(=O)NCCCn2cnc3ccccc32)N(Cc2cccc(C#CCNC(=O)c3ccccc3)c2)O[C@@H]1CO (some centres unmarked) [Compound 55]

Ki (Bcl-2): 0.8 to 6 µM
SMILES: C[C@@H]1[C@@H](NC(=O)[C@@H]2[C@H]([C@H](C)O)[C@H](CO)ON2Cc2cccc(C#CCNCc3c[nH]c4ccccc34)c2)C[C@H]2C[C@@H]1C2(C)C [Compound 68]

Ki (Bcl-2): 0.8 to 6 µM
SMILES: C[C@@H]1[C@@H](NC(=O)[C@@H]2[C@H]([C@H](C)O)[C@H](CO)ON2Cc2cccc(C#CCNS(=O)(=O)c3ccccc3)c2)C[C@H]2C[C@@H]1C2(C)C [Compound 76]

Ki (Bcl-2): 0.8 to 6 µM
SMILES: C[C@@H](O)[C@H]1[C@@H](CO)ON(Cc2cccc(C#CCNC(=O)NCc3ccccc3)c2)[C@H]1C(=O)NCCCN(C)c1ccccc1 [Compound 77]

Ki (Bcl-2): 0.8 to 6 µM
SMILES: C[C@@H](O)[C@H]1[C@@H](CO)ON(Cc2cccc(C#CCNC(=O)Nc3ccccc3)c2)[C@H]1C(=O)NCCCN(C)c1ccccc1 [Compound 79]

Bcl-XL binding affinity Ki (Bcl-xL): ♯♯
Ki (Bcl-2): 0.8 to 6 µM
SMILES: CC(C)C[C@H](CN(C)C)NC(=O)c1cccc(-c2cccc(CN3O[C@@H](CO)[C@@H]([C@H](C)O)[C@H]3C(=O)N[C@H]3C[C@H]4C[C@@H]([C@@H]3C)C4(C)C)c2)c1 [Compound 99]
